The values that follow come from patent US12258327B2, “5-membered heteroaryl-containing aminopyridine compounds as EGFR inhibitors” (YUHAN CORPORATION, priority 2021, dated 2025).

Like-named read-outs stand apart in the source and are kept apart here.

For assay [1], the target named is EGFR del19/T790M/C797S (Homo sapiens, UniProt P00533, C797S/DEL746-750/T790M). Description: Biochemical EGFR kinase assay (Lance Ultra TR-FRET), triple mutant del19/T790M/C797S. The procedure, abridged:
(§1)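 In this biochemical assay, phosphorylation after a one-hour room-temperature reaction was detected with europium-labelled anti-phosphopeptide antibody at 2 nM final concentration.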
A general note: In TR-FRET formats the signal depends on donor and acceptor labels being close together.

In assay [2] the target is EGFR L858R/C797S (Homo sapiens, UniProt P00533, C797S/L858R). Description: Biochemical EGFR kinase assay (Lance Ultra TR-FRET), double mutant L858R/C797S. The method, boiled down:
as §1

The target in assay [3] is EGFR del19/C797S (Homo sapiens, UniProt P00533, C797S/DEL746-750). Put plainly: Biochemical EGFR kinase assay (Lance Ultra TR-FRET), double mutant del19/C797S. The procedure, abridged: as §1
For assay [4], the target named is EGFR wildtype (WT) (Homo sapiens, UniProt P00533). Description: Biochemical EGFR kinase assay (Lance Ultra TR-FRET), wildtype. The method, boiled down:
as §1

For assay [5], the target named is EGFR L858R/T790M/C797S (Homo sapiens, UniProt P00533, C797S/L858R/T790M). Description: Biochemical EGFR kinase assay (Lance Ultra TR-FRET), triple mutant L858R/T790M/C797S. The procedure, abridged: as §1
Setting [6] is: Km ATP, read-out: IC50 del19/T790M/C797S, Km ATP.
[7] abbreviates: Km ATP, read-out: IC50 L858R/C797S, Km ATP.
Where [8] appears, read: Km ATP, read-out: IC50 del19/C797S, Km ATP.
Where [9] appears, read: Km ATP, read-out: IC50 WT, Km ATP.
Setting [10] is: Km ATP, read-out: IC50 L858R/T790M/C797S, Km ATP.
Where [11] appears, read: IC50 del19/T790M/C797S (nM) 100 μM ATP, 100 μM ATP.
[12] abbreviates: Km ATP, read-out: IC50 del19/T790M/C797S (nM) Km ATP.
[13] abbreviates: IC50 L858R/C797S (nM) 100 μM ATP, 100 μM ATP.
Setting [14] is: Km ATP, read-out: IC50 L858R/C797S (nM) Km ATP.
Setting [15] is: IC50 del19/C797S (nM) 100 μM ATP, 100 μM ATP.
The mark [16] stands for this setting: Km ATP, read-out: IC50 del19/C797S (nM) Km ATP.
The mark [17] stands for this setting: IC50 WT (nM) 100 μM ATP, 100 μM ATP.
Where [18] appears, read: Km ATP, read-out: IC50 WT (nM) Km ATP.
[19] abbreviates: IC50 L858R/T790M/C797S (nM) 100 μM ATP, 100 μM ATP.
Where [20] appears, read: Km ATP, read-out: IC50 L858R/T790M/C797S (nM) Km ATP.

EGFR wildtype (WT), sequence (P00533 25-1210): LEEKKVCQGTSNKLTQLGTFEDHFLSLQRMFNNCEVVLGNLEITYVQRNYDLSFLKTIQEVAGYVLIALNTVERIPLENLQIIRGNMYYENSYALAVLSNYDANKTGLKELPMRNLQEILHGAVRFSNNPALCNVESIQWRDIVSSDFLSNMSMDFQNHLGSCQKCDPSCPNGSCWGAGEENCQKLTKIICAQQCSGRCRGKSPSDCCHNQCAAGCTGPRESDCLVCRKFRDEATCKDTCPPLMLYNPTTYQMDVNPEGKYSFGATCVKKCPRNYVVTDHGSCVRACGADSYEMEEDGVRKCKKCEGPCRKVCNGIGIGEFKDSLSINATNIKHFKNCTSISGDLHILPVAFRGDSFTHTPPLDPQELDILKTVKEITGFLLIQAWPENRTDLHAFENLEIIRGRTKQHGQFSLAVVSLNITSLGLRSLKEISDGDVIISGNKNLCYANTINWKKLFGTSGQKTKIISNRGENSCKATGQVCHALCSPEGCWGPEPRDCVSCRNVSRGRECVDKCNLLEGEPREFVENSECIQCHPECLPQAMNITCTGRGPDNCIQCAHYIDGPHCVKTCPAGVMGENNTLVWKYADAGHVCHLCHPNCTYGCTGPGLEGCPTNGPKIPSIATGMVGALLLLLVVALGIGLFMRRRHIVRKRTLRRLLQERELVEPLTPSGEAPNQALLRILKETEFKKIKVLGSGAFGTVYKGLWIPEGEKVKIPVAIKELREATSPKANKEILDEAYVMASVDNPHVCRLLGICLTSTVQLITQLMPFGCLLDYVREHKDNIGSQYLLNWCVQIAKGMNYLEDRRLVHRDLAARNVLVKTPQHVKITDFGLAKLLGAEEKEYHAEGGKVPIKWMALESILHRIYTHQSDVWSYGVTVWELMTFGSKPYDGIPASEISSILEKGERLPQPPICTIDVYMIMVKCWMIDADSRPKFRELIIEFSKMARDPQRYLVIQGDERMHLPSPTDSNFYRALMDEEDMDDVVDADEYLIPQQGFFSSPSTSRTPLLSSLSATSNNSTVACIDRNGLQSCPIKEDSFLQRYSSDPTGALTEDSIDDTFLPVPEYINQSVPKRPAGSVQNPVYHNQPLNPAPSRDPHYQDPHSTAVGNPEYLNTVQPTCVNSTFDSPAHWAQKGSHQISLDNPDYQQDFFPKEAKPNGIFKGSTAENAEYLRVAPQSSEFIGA
EGFR L858R/C797S, sequence (P00533 25-1210 C797S/L858R): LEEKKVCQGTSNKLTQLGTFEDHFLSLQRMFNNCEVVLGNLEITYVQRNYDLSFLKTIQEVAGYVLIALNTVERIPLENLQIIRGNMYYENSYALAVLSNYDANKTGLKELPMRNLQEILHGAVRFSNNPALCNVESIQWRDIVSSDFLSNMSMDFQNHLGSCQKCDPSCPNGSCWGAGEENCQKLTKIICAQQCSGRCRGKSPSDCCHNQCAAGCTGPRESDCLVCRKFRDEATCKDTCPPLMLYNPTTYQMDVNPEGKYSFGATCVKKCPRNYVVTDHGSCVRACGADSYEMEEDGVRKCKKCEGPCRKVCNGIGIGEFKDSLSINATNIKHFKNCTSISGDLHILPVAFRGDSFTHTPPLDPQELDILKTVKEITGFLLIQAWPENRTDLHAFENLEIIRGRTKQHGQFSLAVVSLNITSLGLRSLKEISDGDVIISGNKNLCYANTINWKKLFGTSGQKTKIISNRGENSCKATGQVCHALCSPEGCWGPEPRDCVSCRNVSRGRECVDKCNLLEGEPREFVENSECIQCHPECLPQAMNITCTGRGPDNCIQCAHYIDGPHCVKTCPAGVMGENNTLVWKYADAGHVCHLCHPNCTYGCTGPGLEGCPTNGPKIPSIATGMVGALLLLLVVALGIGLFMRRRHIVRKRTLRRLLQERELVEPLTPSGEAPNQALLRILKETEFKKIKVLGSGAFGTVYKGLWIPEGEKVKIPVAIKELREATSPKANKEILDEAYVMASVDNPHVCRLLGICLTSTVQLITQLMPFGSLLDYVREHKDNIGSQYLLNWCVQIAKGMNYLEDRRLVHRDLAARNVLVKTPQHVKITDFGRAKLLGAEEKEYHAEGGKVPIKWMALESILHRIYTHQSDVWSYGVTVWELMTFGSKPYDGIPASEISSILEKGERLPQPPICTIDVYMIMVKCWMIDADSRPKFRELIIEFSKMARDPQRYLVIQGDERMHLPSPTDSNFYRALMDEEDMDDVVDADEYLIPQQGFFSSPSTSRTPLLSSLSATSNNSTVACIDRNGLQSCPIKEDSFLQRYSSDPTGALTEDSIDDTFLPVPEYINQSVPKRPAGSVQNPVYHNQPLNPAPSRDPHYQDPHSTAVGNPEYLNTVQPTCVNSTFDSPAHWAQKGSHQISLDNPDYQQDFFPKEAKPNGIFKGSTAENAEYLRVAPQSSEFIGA
EGFR del19/C797S, sequence (P00533 with tags, fused parts or gaps DEL746-750/C797S): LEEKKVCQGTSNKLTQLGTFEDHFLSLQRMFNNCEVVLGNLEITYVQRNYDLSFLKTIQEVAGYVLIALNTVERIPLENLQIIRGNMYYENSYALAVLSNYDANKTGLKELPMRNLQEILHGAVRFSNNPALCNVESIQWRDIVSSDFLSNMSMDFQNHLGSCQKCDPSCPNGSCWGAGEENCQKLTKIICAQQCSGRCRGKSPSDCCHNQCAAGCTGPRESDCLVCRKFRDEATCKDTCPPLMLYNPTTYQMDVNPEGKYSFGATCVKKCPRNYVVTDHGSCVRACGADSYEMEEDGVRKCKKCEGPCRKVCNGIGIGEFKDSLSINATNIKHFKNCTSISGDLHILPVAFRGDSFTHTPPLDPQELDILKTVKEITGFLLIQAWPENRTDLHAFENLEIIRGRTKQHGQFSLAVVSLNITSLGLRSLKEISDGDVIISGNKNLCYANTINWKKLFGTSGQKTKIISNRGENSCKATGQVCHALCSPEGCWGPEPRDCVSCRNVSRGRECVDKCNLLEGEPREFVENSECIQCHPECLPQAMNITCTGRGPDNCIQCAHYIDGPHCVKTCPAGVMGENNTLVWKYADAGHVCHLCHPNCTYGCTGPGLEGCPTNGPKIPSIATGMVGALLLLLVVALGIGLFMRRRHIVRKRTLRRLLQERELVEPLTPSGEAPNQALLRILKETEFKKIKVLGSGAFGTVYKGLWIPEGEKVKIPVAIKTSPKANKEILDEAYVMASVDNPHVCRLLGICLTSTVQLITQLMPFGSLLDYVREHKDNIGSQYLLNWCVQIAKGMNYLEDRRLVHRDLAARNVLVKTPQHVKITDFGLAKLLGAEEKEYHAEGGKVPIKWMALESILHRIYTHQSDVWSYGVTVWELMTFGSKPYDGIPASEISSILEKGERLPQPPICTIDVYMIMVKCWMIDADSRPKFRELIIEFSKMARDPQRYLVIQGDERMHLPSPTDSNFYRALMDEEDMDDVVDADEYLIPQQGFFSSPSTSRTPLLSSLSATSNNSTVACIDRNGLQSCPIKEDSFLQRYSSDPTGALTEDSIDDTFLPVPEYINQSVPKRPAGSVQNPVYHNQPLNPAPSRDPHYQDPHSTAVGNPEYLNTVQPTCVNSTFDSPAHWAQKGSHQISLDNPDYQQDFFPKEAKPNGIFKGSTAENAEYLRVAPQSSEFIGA
EGFR del19/T790M/C797S, sequence (P00533 with tags, fused parts or gaps DEL746-750/T790M/C797S): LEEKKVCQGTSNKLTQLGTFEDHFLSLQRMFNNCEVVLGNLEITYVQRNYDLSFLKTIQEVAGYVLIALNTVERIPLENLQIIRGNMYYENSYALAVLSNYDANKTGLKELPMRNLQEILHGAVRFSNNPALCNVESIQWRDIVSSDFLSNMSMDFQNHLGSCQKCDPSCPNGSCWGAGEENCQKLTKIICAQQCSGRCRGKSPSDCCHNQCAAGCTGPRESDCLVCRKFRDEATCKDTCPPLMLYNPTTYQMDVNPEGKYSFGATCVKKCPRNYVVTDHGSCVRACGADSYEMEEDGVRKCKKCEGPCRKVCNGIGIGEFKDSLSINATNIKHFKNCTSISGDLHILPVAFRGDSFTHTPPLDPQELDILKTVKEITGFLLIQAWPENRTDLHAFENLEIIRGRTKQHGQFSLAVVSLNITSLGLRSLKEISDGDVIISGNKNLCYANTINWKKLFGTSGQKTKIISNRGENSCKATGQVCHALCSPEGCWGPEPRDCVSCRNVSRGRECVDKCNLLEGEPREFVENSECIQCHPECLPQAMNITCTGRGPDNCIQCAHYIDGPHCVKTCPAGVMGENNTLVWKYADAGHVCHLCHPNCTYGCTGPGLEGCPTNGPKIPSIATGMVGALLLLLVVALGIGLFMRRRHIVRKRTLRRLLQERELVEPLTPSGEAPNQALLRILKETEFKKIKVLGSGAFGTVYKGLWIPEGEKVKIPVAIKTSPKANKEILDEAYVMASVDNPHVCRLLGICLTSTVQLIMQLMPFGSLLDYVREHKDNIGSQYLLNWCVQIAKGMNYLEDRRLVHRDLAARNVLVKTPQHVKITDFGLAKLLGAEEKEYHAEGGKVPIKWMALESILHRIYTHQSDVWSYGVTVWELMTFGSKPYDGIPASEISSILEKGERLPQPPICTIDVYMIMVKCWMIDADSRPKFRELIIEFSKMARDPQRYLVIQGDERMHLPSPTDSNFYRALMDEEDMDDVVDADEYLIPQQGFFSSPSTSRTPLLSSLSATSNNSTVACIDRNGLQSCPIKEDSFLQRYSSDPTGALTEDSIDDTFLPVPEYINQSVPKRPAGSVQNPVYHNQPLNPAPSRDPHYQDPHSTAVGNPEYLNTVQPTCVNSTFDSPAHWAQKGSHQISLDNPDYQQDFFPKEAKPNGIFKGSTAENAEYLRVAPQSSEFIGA

In the case of `O=S(=O)(C1CC1)n1cc(-c2cc(Nc3ncc(-c4ccn(CCC(F)(F)F)n4)c(N[C@H]4CC[C@@H](F)CC4)n3)ccn2)cn1` [Example 367, N^2-(2-(1-(Cyclopropylsulfonyl)-1H-pyrazol-4-yl)pyridin-4-yl)-N^4-((1s,4s)-4-fluorocyclohexyl)-5-(1-(3,3,3-trifluoropropyl)-1H-pyrazol-3-yl)pyrimidine-2,4-diamine], the IC50 in assay [1] (setting [6]) was 17.1 nM; in assay [2] (setting [7]), 251 nM; in assay [3] (setting [8]), 391 nM; in assay [4] (setting [9]), 5000 nM; in assay [5] (setting [10]) it was 7.2 nM.

As to `CCS(=O)(=O)n1cc(-c2nccc(Nc3cc(N[C@H]4CC[C@@](C)(O)CC4)c(-c4ccn(C(F)F)n4)cn3)n2)cn1` [Example 308, (1s,4s)-4-((5-(1-(Difluoromethyl)-1H-pyrazol-3-yl)-2-((2-(1-(ethylsulfonyl)-1H-pyrazol-4-yl)pyrimidin-4-yl)amino)pyridin-4-yl)amino)-1-methylcyclohexan-1-ol], the IC50 amounted to 0.4 nM in assay [1] (setting [11]); 0.4 nM in assay [1] (setting [12]); 4.1 nM in assay [2] (setting [13]); 0.4 nM in assay [2] (setting [14]); 0.4 nM in assay [3] (setting [15]); 0.5 nM in assay [3] (setting [16]). Further, the IC50 in assay [4] (setting [17]) amounted to 3640 nM; in assay [4] (setting [18]), 44.2 nM; in assay [5] (setting [19]), 0.4 nM; in assay [5] (setting [20]), 0.2 nM.

Regarding `CN(C)C[C@H]1CC[C@@H](Nc2cc(Nc3ccnc(-c4cnn(S(=O)(=O)C5CC5)c4)n3)ncc2-c2cc(C(C)(C)O)n(C)n2)CC1` [Example 302, 2-(3-(6-((2-(1-(Cyclopropylsulfonyl)-1H-pyrazol-4-yl)pyrimidin-4-yl)amino)-4-(((1s,4s)-4-((dimethylamino)methyl)cyclohexyl)amino)pyridin-3-yl)-1-methyl-1H-pyrazol-5-yl)propan-2-ol], the IC50 in assay [1] (setting [11]) is 0.4 nM; in assay [1] (setting [12]), 0.3 nM; in assay [2] (setting [13]), 0.2 nM; in assay [2] (setting [14]) it was 0.1 nM; in assay [3] (setting [15]), 0.3 nM; in assay [3] (setting [16]), 0.2 nM. The IC50 in assay [4] (setting [17]) was determined as 38.9 nM; in assay [4] (setting [18]), 0.2 nM; in assay [5] (setting [19]), 0.2 nM; in assay [5] (setting [20]), 0.1 nM.

Turning to `C[C@]1(O)CC[C@@H](Nc2cc(Nc3ccnc(-c4cnn(S(=O)(=O)C5CC5)c4)n3)ncc2-c2ccn(C3CC3)n2)CC1` [Example 290, (1s,4s)-4-((5-(1-Cyclopropyl-1H-pyrazol-3-yl)-2-((2-(1-(cyclopropylsulfonyl)-1H-pyrazol-4-yl)pyrimidin-4-yl)amino)pyridin-4-yl)amino)-1-methylcyclohexan-1-ol], the IC50 in assay [1] (setting [11]) stood at 0.1 nM; in assay [1] (setting [12]), 0.1 nM; in assay [2] (setting [13]), 3.4 nM; in assay [2] (setting [14]), 0.3 nM; in assay [3] (setting [15]), 0.5 nM; in assay [3] (setting [16]), 0.2 nM. Also, the IC50 in assay [4] (setting [17]) amounted to 2500 nM; in assay [4] (setting [18]), 2 nM; in assay [5] (setting [19]) it was 0.2 nM; in assay [5] (setting [20]), 0.1 nM.

`CN(C)CC1CCC(Nc2cc(Nc3ccnc(-c4cnn(S(=O)(=O)C5CC5)c4)n3)ncc2-c2ccn(C3COC3)n2)CC1` (centres unmarked) [Example 284, N^2-(2-(1-(Cyclopropylsulfonyl)-1H-pyrazol-4-yl)pyrimidin-4-yl)-N^4-((1s,4s)-4-((dimethylamino)methyl)cyclohexyl)-5-(1-(oxetan-3-yl)-1H-pyrazol-3-yl)pyridine-2,4-diamine]: the IC50 was 0.1 nM in assay [1] (setting [11]); 0.1 nM in assay [1] (setting [12]); 0.9 nM in assay [2] (setting [13]); 0.1 nM in assay [2] (setting [14]); 0.4 nM in assay [3] (setting [15]); 0.1 nM in assay [3] (setting [16]). The IC50 in assay [4] (setting [17]) was determined as 387 nM; in assay [4] (setting [18]), 0.8 nM; in assay [5] (setting [19]) it was 0.1 nM; in assay [5] (setting [20]), 0.1 nM.

Turning to `Cn1nc(-c2cnc(Nc3ccnc(-c4cnn(S(=O)(=O)C5CC5)c4)n3)cc2NC[C@H]2CC[C@@H](O)C2)cc1C(F)(F)F` [Example 261, (1R,3S)-3-(((2-((2-(1-(Cyclopropylsulfonyl)-1H-pyrazol-4-yl)pyrimidin-4-yl)amino)-5-(1-methyl-5-(trifluoromethyl)-1H-pyrazol-3-yl)pyridin-4-yl)amino)methyl)cyclopentan-1-ol], the IC50 in assay [1] (setting [11]) stood at 1.2 nM; in assay [1] (setting [12]) it was 0.1 nM; in assay [2] (setting [13]), 22.7 nM; in assay [2] (setting [14]), 5.6 nM; in assay [3] (setting [15]) it was 77.9 nM; in assay [3] (setting [16]) it was 5.8 nM. Further, the IC50 in assay [4] (setting [17]) is more than 10000 nM; in assay [4] (setting [18]), 6.4 nM; in assay [5] (setting [19]), 1.4 nM; in assay [5] (setting [20]) it was 0.8 nM.

For `C[C@]1(O)CC[C@@H](Nc2cc(Nc3ccnc(-c4cnn(S(=O)(=O)C5CC5)c4)n3)nnc2-c2ccn(C(F)F)n2)CC1` [Example 372, (1s,4s)-4-((6-((2-(1-(Cyclopropylsulfonyl)-1H-pyrazol-4-yl)pyrimidin-4-yl)amino)-3-(1-(difluoromethyl)-1H-pyrazol-3-yl)pyridazin-4-yl)amino)-1-methylcyclohexan-1-ol], the IC50 in assay [1] (setting [6]) came out at 0.6 nM; in assay [2] (setting [7]) it was 3.7 nM; in assay [3] (setting [8]), 6.9 nM; in assay [4] (setting [9]), 108 nM; in assay [5] (setting [10]), 0.2 nM.

Take `Cn1cc(-c2nccc(Nc3cc(N[C@H]4CC[C@@](C)(O)CC4)c(-c4ccn(C(F)F)n4)cn3)n2)cn1` [Example 139, (1s,4s)-4-((5-(1-(Difluoromethyl)-1H-pyrazol-3-yl)-2-((2-(1-methyl-1H-pyrazol-4-yl)pyrimidin-4-yl)amino)pyridin-4-yl)amino)-1-methylcyclohexan-1-ol]: the IC50 was determined as 1.1 nM in assay [1] (setting [11]); 1.7 nM in assay [1] (setting [12]); 165 nM in assay [2] (setting [13]); 57.1 nM in assay [2] (setting [14]); 99.1 nM in assay [3] (setting [15]); 50.2 nM in assay [3] (setting [16]). Moreover, the IC50 in assay [4] (setting [17]) was more than 10000 nM; in assay [4] (setting [18]), 61 nM; in assay [5] (setting [19]) it was 5.2 nM; in assay [5] (setting [20]) it was 0.8 nM.

Consider `Cc1cnn(-c2cnc(Nc3ccnc(-c4cnn(S(=O)(=O)C5CC5)c4)n3)cc2N[C@H]2CC[C@@](C)(O)CC2)c1` [Example 184, (1s,4s)-4-((2-((2-(1-(Cyclopropylsulfonyl)-1H-pyrazol-4-yl)pyrimidin-4-yl)amino)-5-(4-methyl-1H-pyrazol-1-yl)pyridin-4-yl)amino)-1-methylcyclohexan-1-ol], for which the IC50 in assay [1] (setting [12]) was determined as 0.1 nM; in assay [2] (setting [14]), 2 nM; in assay [3] (setting [16]), 4.8 nM; in assay [4] (setting [18]), 32 nM; in assay [5] (setting [20]), 0.05 nM.

`C[C@]1(O)CC[C@@H](Nc2cc(Nc3ccnc(-c4ccc(F)nc4)n3)ncc2-c2ccn(C(F)F)n2)CC1` [Example 113, (1s,4s)-4-((5-(1-(Difluoromethyl)-1H-pyrazol-3-yl)-2-((2-(6-fluoropyridin-3-yl)pyrimidin-4-yl)amino)pyridin-4-yl)amino)-1-methylcyclohexan-1-ol]: the IC50 in assay [1] (setting [11]) was 17.5 nM; in assay [2] (setting [13]), 483 nM; in assay [3] (setting [15]), 606 nM; in assay [4] (setting [17]), more than 10000 nM; in assay [4] (setting [18]) it was more than 10000 nM; in assay [5] (setting [19]), 186 nM.

In the case of `Cn1ccc(-c2cnc(Nc3ccnc(-c4cnn(S(=O)(=O)C5CC5)c4)n3)cc2NC[C@H]2CC[C@H](O)CC2)n1` [Example 47, (1r,4r)-4-(((2-((2-(1-(Cyclopropylsulfonyl)-1H-pyrazol-4-yl)pyrimidin-4-yl)amino)-5-(1-methyl-1H-pyrazol-3-yl)pyridin-4-yl)amino)methyl)cyclohexan-1-ol], the IC50 amounted to 0.6 nM in assay [1] (setting [11]); 0.6 nM in assay [1] (setting [12]); 6.5 nM in assay [2] (setting [13]); 0.8 nM in assay [2] (setting [14]); 0.8 nM in assay [3] (setting [15]); 0.5 nM in assay [3] (setting [16]). Moreover, the IC50 in assay [4] (setting [17]) was more than 10000 nM; in assay [4] (setting [18]) it was 4.5 nM; in assay [5] (setting [19]) it was 0.5 nM; in assay [5] (setting [20]), 0.1 nM.

Consider `O=S(=O)(C1CC1)n1cc(-c2nccc(Nc3cc(N[C@H]4CC[C@@H](CCO)CC4)c(-c4ccn(CC(F)(F)F)n4)cn3)n2)cn1` [Example 269, 2-((1s,4s)-4-((2-((2-(1-(Cyclopropylsulfonyl)-1H-pyrazol-4-yl)pyrimidin-4-yl)amino)-5-(1-(2,2,2-trifluoroethyl)-1H-pyrazol-3-yl)pyridin-4-yl)amino)cyclohexyl)ethan-1-ol], for which the IC50 in assay [1] (setting [11]) was 1.3 nM; in assay [1] (setting [12]), 2.8 nM; in assay [2] (setting [13]) it was 4 nM; in assay [2] (setting [14]), 1.4 nM; in assay [3] (setting [15]), 29.9 nM; in assay [3] (setting [16]), 1.3 nM. Moreover, the IC50 in assay [4] (setting [17]) is 5750 nM; in assay [4] (setting [18]), 7.1 nM; in assay [5] (setting [19]), 1.4 nM; in assay [5] (setting [20]), 0.5 nM.
